Test results from US12453707B2, “Vaginal films” (priority 2017, dated 2025).

Legend:
[1] = cited from earlier work
[2] = X-ray diffraction solid state solubility of TFV in polymers; assay type: physicochemical; conditions: XRD of lyophilized polymer:TFV mass, pH 6-6.5
Method: X-ray diffraction (XRD) was used to study the solid state solubility of TFV in a series of polymers like HPMC-E5, HEC, and NaCMC-LV. TFV and polymers were dissolved together in milliQ water on a magnetic stirrer to achieve various polymer to TFV (P:T) ratios. pH was adjusted to 6-6.5 using sodium hydroxide equimolar to TFV. The solutions were then lyophilized using a Freezone 6 lyophilizer (Labconco, MO, USA). The powder obtained after lyophilization was scanned on a Philips X-ray diffractometer between 5-50° 2θ. A 37-minute scan was obtained. Similarly obtained XRD scans for lyophilized pure polymers and lyophilized TFV (pH 6-6.5) served as controls.

## C[C@H](Cn1cnc2c(N)ncnc21)OCP(=O)(O)O [TFV, 9-[9(R)-2-(phosphonomethoxy)propyl]adenine]
[1]
  pKa, phosphate groups (first value): 2.1
  pKa, phosphate groups (second value): 4.3
  pKa, primary amine group: 7.3
[2]
  P:T ratio at which HPMC-E5, HEC and NaCMC-LV were able to solubilize TFV: ≥ 3
